Experimental data taken from article PMC8774648, “Effects of Baicalein and Chrysin on the Structure and Functional Properties of β-Lactoglobulin” (Foods, 2022).
Values joined by “and” are separate entries in the source; they are usually repeats but may differ in a detail not shown here. Equal values may be shown once. Marks after values point to notes of the source that are not given here.

Columns and labels:
β-lactoglobulin (BLG) [1] = biological target: T1, β-lactoglobulin (BLG) (Bos taurus, UniProt P02754); assay: Intrinsic fluorescence quenching of BLG by Bai/Chr (Stern–Volmer and double logarithmic equations); type: binding; settings: for Kd: Ka (binding constant); for Kd / Ksv (Stern–Volmer quenching constant): pH 6.8
T1 construct: purchased Sigma–Aldrich Co. (St. Louis, MO, USA)
T1 sequence (P02754 17-178): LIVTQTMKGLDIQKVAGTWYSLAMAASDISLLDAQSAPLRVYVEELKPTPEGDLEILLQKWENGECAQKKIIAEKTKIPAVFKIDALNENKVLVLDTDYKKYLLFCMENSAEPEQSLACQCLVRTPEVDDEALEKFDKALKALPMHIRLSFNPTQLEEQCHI
Protocol: (§1) Intrinsic fluorescence spectroscopic test was measured on a F–7000 spectrophotometer (Hitachi, Japan) equipped with temperature controller according to the method described in the previous study. Briefly, 3 mL solution of BLG (20.0 µM) was titrated by continuously adding different amounts of Bai or Chr (0–20.0 µM). The fluorescence spectra were recorded at different temperatures (298 K, 304 K, and 310 K) with the excitation wavelength of 280 nm and the excitation and emission slit set at 2.5 nm. Moreover, synchronous fluorescence spectra were conducted by setting the wavelength intervals (λem–λex) at 15 nm and 60 nm, respectively. The 3D fluorescence spectra (molar ratios of BLG to Bai/Chr were 1:0 and 1:1) were recorded at excitation and emission wavelength range of 200−600 nm. All the fluorescence values were corrected to eliminate the internal filtering effect according to the previous method, and were used to evaluate the quenching mechanism of Bai/Chr binding to BLG by using the following equation [21]:(1) F0/F=1+Kqτ0[Q]=1+KSV[Q] where F and F0 are the fluorescence intensities of fluorophore with and without quencher; Ksv denotes the Stern–Volmer quenching constant; Kq is the quenching rate constant (Kq = Ksv/τ0), and τ0 is the average lifetime of the biomolecule in the absence of a quencher (τ0 = 10^−8 s); [Q] represents the experimental concentration of Bai/Chr.
For static fluorescence quenching mechanism, the binding constant (Ka) and the number of binding sites (n) could be determined by the following equation [22]:(2) logF0−F/F=nlogKa−nlog1/[Qt]−(F0−F)[Pt]/F0 where [Qt] and [Pt] are the concentrations of Bai/Chr and BLG, respectively.

β-lactoglobulin (BLG) [2] = biological target: T1, β-lactoglobulin (BLG); assay: Emulsifying ability and emulsifying stability of BLG
Protocol: Emulsifying ability (EA) and emulsifying stability (ES) were investigated by the method of Xiong et al. with slight modification. BLG solution (1 mg mL^−1) was added to Bai/Chr to form the solutions with different ratios of BLG to Bai/Chr (40:1, 30:1, 20:1, 10:1), and then soybean oil was added to form BLG solution containing 10% (v/v) oil. The emulsion was fully dispersed for 2 min at a rate of 7000 r min^−1 and repeated for three times. At 0 and 10 min, 30 µL of emulsion was extracted from the bottom of the sample and immediately added to 3 mL of 0.1% SDS solution. The absorbance of the sample was measured at 500 nm and recorded as A0 and A10, respectively. The EA (m^2 g^−1) and ES (min) were calculated according to the following equations:(11) EA (m^2 g^−1)=2×2.303/c×Φ×L×10^4×A0×D (12) ES (min)=A0/A0−A10×10 where c is the weight of the BLG per unit volume (g mL^−1), Φ is the volume fraction of the oil phase, L is the length of light path, and D is the dilution factor, D = 100.

β-lactoglobulin (BLG) [3] = biological target: T1, β-lactoglobulin (BLG); assay: Protein surface hydrophobicity (PSH) of BLG with ANS probe
Protocol: PSH of BLG in the presence or absence of Bai or Chr was determined using ANS as a fluorescent probe. In the BLG solution (20.0 µM) alone or Bai/Chr–BLG mixture the ANS solution (5 mM) was continuously added until the fluorescence intensity of the mixture remained constant. The fluorescence intensity of the sample was recorded in the wavelength range of 400–600 nm upon 380 nm excitation. The PSH values were calculated by the following equations [26]:(5) [ANS]bound=F/B (6) [ANS]free=[ANS]total−[ANS]bound (7) F/[ANS]free=−F/Kdapp−Fmax/Kdapp (8) PSH=Fmax/[BLG]Kdapp where [ANS]free and [ANS]bound are the concentration of free and bound ANS, respectively. Kdapp is the apparent dissociation constant of ANS, Fmax is the maximum fluorescence intensity at saturating ANS concentration and B is the proportionality coefficient.

β-lactoglobulin (BLG) [4] = biological target: T1, β-lactoglobulin (BLG); assay: CD spectra, secondary structure contents of BLG
Protocol: The CD spectra in the range of 200–250 nm were obtained from a CD spectrometer (MOS 450, Bio–Logic, Claix, France) equipped with 1.0 mm path length cuvette under the constant nitrogen flush. The solutions were prepared with molar ratios of Bai or Chr to BLG of 0:1, 1:1, and 2:1, respectively. The contents of secondary structure of BLG were determined based on our previously reported study.

β-lactoglobulin (BLG) [5] = biological target: T1, β-lactoglobulin (BLG); assay: Three-dimensional fluorescence spectra of BLG with Bai/Chr; settings: c(BLG) = 20.0 µM, c(Bai/Chr) = 20.0 μM
Protocol: as §1

β-lactoglobulin (BLG) [6] = biological target: T1, β-lactoglobulin (BLG); assay: Foaming ability and foaming stability of BLG
Protocol: Foaming ability (FA) and foaming stability (FS) were measured as described by Wang et al. with some modifications. A certain amount of BLG solution (1.0 mg mL^−1) was added to a 100 mL cylinder, and Bai or Chr was added to form solutions with different ratios of BLG to Bai or Chr (40:1, 30:1, 20:1, 10:1). The initial height H0 of the foam was recorded. The foam was then sheared at 10,000 rpm in a high-speed dispersion machine for 1 min and the height of the foam was recorded as H1. The height of the foam was recorded as H2 30 min later. The FA (%) and FS (%) were calculated according to the following equations:(9) FA (%)=H1−H0/H0×100 (10) FS (%)=H2−H0/H1−H0×100

β-lactoglobulin (BLG) [7] = biological target: T1, β-lactoglobulin (BLG); assay: Free sulfhydryl (SH) content of BLG (DTNB); settings: Bai/Chr 0 to 20.0 µM, BLG 20.0 µM
Protocol: The content of free SH was determined by spectrophotometry according to the report by Takić et al. with minor modifications. Briefly, Bai/Chr concentrations were varied from 0 to 20.0 µM, and BLG was kept at 20.0 µM. Then the two solutions were incubated with 10.0 mM DTNB in 50 mM PBS (pH 6.8) for 30 min at room temperature. The absorbance of the sample at 412 nm was recorded and the molar extinction coefficient (14,360 M^−1 cm^−1) was obtained from the standard curve of L-cysteine, which was used to calculate the number of total sulfhydryl groups per gram of protein.

β-lactoglobulin (BLG) [8] = biological target: T1, β-lactoglobulin (BLG); assay: Thermodynamic parameters of Bai/Chr–BLG binding (Van't Hoff equation)
Protocol: In order to determine the primary forces between BLG and Bai/Chr, thermodynamic parameters were calculated using the following equations [23]:(3) logKa=−ΔH°/2.303RT+ΔS°/2.303R (4) ΔG°=ΔH°−TΔS° where R and T represent gas constant (8.314 J mol^−1 K^−1) and temperature (298, 304, and 310 K), respectively. Enthalpy change (ΔH°) and entropy change (ΔS°) of interaction between ligands and biomolecules are the main criteria for evaluating acting force, and free energy (ΔG°) is the main criteria for estimating the spontaneity of interaction.

[9] = molar ratio of Bai/Chr to BLG 1:1
[10] = molar ratio of Bai/Chr to BLG 2:1
[11] = molar ratio of Bai/Chr to BLG 2:1, listed as Chr–BLG

O=c1cc(-c2ccccc2)oc2cc(O)cc(O)c12 [Chr, chrysin]
Ka (binding constant) (β-lactoglobulin (BLG) [1]; 298 K): 214000 L/mol
Kd (β-lactoglobulin (BLG) [1]; T = 298 K): 4.67 µM
Kd (β-lactoglobulin (BLG) [1]; T = 304 K): 4.81 µM
Kd (β-lactoglobulin (BLG) [1]; T = 310 K): 5.13 µM
n (number of binding sites) (β-lactoglobulin (BLG) [1]; T = 298 K): 1.45 ± 0.01
Ksv (Stern–Volmer quenching constant) (β-lactoglobulin (BLG) [1]; T = 298 K): 3.10 ± 0.04 ^d ×10^4 L mol^−1
n (number of binding sites) (β-lactoglobulin (BLG) [1]; T = 304 K): 1.01 ± 0.02
Ksv (Stern–Volmer quenching constant) (β-lactoglobulin (BLG) [1]; T = 304 K): 2.94 ± 0.06 ^e ×10^4 L mol^−1
n (number of binding sites) (β-lactoglobulin (BLG) [1]; T = 310 K): 1.29 ± 0.01
Ksv (Stern–Volmer quenching constant) (β-lactoglobulin (BLG) [1]; T = 310 K): 2.59 ± 0.04 ^f ×10^4 L mol^−1
BLG fluorescence quenching (β-lactoglobulin (BLG) [1]; after 10 times titration, 298 K, c(BLG) = 20 µM): 59.0%
n (number of binding sites) (β-lactoglobulin (BLG) [1]; general statement for the three temperatures): approximately 1
effect on emulsifying stability (ES) of BLG (β-lactoglobulin (BLG) [2]; BLG to Bai/Chr 40:1 to 10:1): did the opposite
effect on emulsifying ability (EA) of BLG (β-lactoglobulin (BLG) [2]; with the increase of Bai or Chr concentration (BLG to Bai/Chr 40:1 to 10:1)): slightly improved
F max (maximum fluorescence intensity at saturating ANS) (β-lactoglobulin (BLG) [3]; molar ratio 1:1): 151.76 ± 3.04 ^b
PSH (protein surface hydrophobicity) (β-lactoglobulin (BLG) [3]; molar ratio 1:1): 252.82 ± 5.07 ^c
Kdapp (apparent dissociation constant of ANS) (β-lactoglobulin (BLG) [3]; molar ratio 1:1, c(BLG) = 20.0 µM): 5.67 ± 0.31 µM
Reduction Rate of PSH (β-lactoglobulin (BLG) [3]; molar ratio 1:1, versus BLG alone): 23.25 ± 0.47 ^b %
F max (maximum fluorescence intensity at saturating ANS) (β-lactoglobulin (BLG) [3]; molar ratio 2:1): 110.17 ± 2.20 ^d
PSH (protein surface hydrophobicity) (β-lactoglobulin (BLG) [3]; molar ratio 2:1): 193.69 ± 3.87 ^e
Kdapp (apparent dissociation constant of ANS) (β-lactoglobulin (BLG) [3]; molar ratio 2:1, c(BLG) = 20.0 µM): 5.7 ± 0.1 µM
Reduction Rate of PSH (β-lactoglobulin (BLG) [3]; molar ratio 2:1, versus BLG alone): 41.20 ± 0.82 ^a %
Random Coil content of BLG (β-lactoglobulin (BLG) [4]; [9]): 25.96 ± 0.34 ^bc %
α-Helix content of BLG (β-lactoglobulin (BLG) [4]; [9]): 14.30 ± 0.47 ^c %
β-Sheet content of BLG (β-lactoglobulin (BLG) [4]; [9]): 35.18 ± 0.12 ^c %
β-Turn content of BLG (β-lactoglobulin (BLG) [4]; [9]): 24.56 ± 0.48 ^a %
Random Coil content of BLG (β-lactoglobulin (BLG) [4]; [10]): 31.16 ± 0.10 ^a %
β-Turn content of BLG (β-lactoglobulin (BLG) [4]; [10]): 24.53 ± 0.93 ^a %
α-Helix content of BLG (β-lactoglobulin (BLG) [4]; [11]): 11.25% and 11.25 ± 0.58 ^d %
β-Sheet content of BLG (β-lactoglobulin (BLG) [4]; [11]): 33.06% and 33.06 ± 0.30 ^e %
fluorescence intensity of Peak 2 (3D fluorescence) (β-lactoglobulin (BLG) [5]; free BLG 430.6): 205.3
fluorescence intensity of Peak 1 (3D fluorescence) (β-lactoglobulin (BLG) [5]; free BLG 522.1): 378.5
increase of foaming stability (FS) of BLG (β-lactoglobulin (BLG) [6]; compared with BLG alone, molar ratio of BLG to Bai/Chr 10:1): 85.57%
increase of foaming ability (FA) of BLG (β-lactoglobulin (BLG) [6]; compared with FA of free BLG (25.2%), molar ratios of BLG to Bai/Chr changed from 40:1 to 10:1): 51.32%
effect on contents of free SH group of BLG (β-lactoglobulin (BLG) [7]): gradually weakened
ΔG° (free energy) (β-lactoglobulin (BLG) [8]; T = 298 K): -30.41 kJ/mol
ΔG° (free energy) (β-lactoglobulin (BLG) [8]; T = 304 K): -31.14 kJ/mol
ΔG° (free energy) (β-lactoglobulin (BLG) [8]; T = 310 K): -31.88 kJ/mol
ΔH° (enthalpy change) (β-lactoglobulin (BLG) [8]; from Ka at 298, 304 and 310 K): 6.21 kJ/mol
ΔS° (entropy change) (β-lactoglobulin (BLG) [8]; from Ka at 298, 304 and 310 K): 122.18 J mol^−1 K^−1
